In PubChem BioAssay AID248 (DTP/NCI, 2004):
Toxic doses and inconclusive results are not listed. Cut-off read from the data, not from the text of the source: active = T/C of 150% or more; inactive = T/C below 125%.

Tested on: L1210 leukemia ip in BDF1 mice, survival T/C
Experiment: NCI In Vivo Anticancer Drug Screen. Data for tumor model L1210 Leukemia (intraperitoneal) in B6D2F1 (BDF1) mice
Settings: endpoint: mean survival time, higher = longer survival
Procedure, shortened: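 In this screen, tumor-bearing mice given compound are compared to those given vehicle, and their survival values are reported as a treated-to-control quotient.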

[1] = dose: 100.0 mg/kg/injection, schedule: Q04DX003 (ip), vehicle: Klucel (hydroxypropylcellulose) (HPC)
[2] = dose: 200.0 mg/kg/injection, schedule: Q04DX003 (ip), vehicle: Klucel (hydroxypropylcellulose) (HPC)
[3] = dose: 400.0 mg/kg/injection, schedule: Q04DX003 (ip), vehicle: Klucel (hydroxypropylcellulose) (HPC)
[4] = dose: 100.0 mg/kg/injection, schedule: Q04DX003 (ip), vehicle: saline with Tween-80
[5] = dose: 200.0 mg/kg/injection, schedule: Q04DX003 (ip), vehicle: saline with Tween-80
[6] = dose: 400.0 mg/kg/injection, schedule: Q04DX003 (ip), vehicle: saline with Tween-80
[7] = dose: 100.0 mg/kg/injection, schedule: Q04DX002 (ip), vehicle: saline with Tween-80
[8] = dose: 200.0 mg/kg/injection, schedule: Q04DX002 (ip), vehicle: saline with Tween-80
[9] = dose: 100.0 mg/kg/injection, schedule: Q04DX003 (ip), vehicle: water
[10] = dose: 200.0 mg/kg/injection, schedule: Q04DX003 (ip), vehicle: water
[11] = dose: 400.0 mg/kg/injection, schedule: Q04DX003 (ip), vehicle: water
[12] = dose: 100.0 mg/kg/injection, schedule: Q01DX001 (ip), vehicle: saline
[13] = dose: 25.0 mg/kg/injection, schedule: Q01DX009 (ip), vehicle: saline
[14] = dose: 25.0 mg/kg/injection, schedule: Q04DX003 (ip), vehicle: saline
[15] = dose: 50.0 mg/kg/injection, schedule: Q01DX009 (ip), vehicle: saline
[16] = dose: 50.0 mg/kg/injection, schedule: Q04DX003 (ip), vehicle: saline
[17] = dose: 100.0 mg/kg/injection, schedule: Q01DX009 (ip), vehicle: Klucel (hydroxypropylcellulose) (HPC)
[18] = dose: 200.0 mg/kg/injection, schedule: Q01DX009 (ip), vehicle: Klucel (hydroxypropylcellulose) (HPC)
[19] = dose: 400.0 mg/kg/injection, schedule: Q01DX009 (ip), vehicle: Klucel (hydroxypropylcellulose) (HPC)
[20] = dose: 100.0 mg/kg/injection, schedule: Q01DX009 (ip), vehicle: saline

Measured: T/C

NC(CSCc1ccccc1)C(=O)O (centres undefined)
inactive: dose: 7.0 mg/kg/injection, schedule: Q01DX015 (ip), vehicle: saline 97 % of control | dose: 15.0 mg/kg/injection, schedule: Q01DX015 (ip), vehicle: saline 97 % of control | dose: 29.0 mg/kg/injection, schedule: Q01DX015 (ip), vehicle: saline 101 % of control | dose: 50.0 mg/kg/injection, schedule: Q01DX001 (ip), vehicle: carboxymethylcellulose (CMC) 89 % of control | dose: 58.0 mg/kg/injection, schedule: Q01DX015 (ip), vehicle: saline 97 % of control | dose: 100.0 mg/kg/injection, schedule: Q01DX001 (ip), vehicle: carboxymethylcellulose (CMC) 101 % of control | [1] 100 % of control | dose: 117.0 mg/kg/injection, schedule: Q01DX015 (ip), vehicle: saline 97 % of control | dose: 200.0 mg/kg/injection, schedule: Q01DX001 (ip), vehicle: carboxymethylcellulose (CMC) 89 % of control | [2] 94 % of control | dose: 233.0 mg/kg/injection, schedule: Q01DX015 (ip), vehicle: saline 95 % of control | [3] 96 % of control

CC(O)CNC(=O)C(C)O (centres undefined)
inactive: [4] 98 % of control | [5] 97 % of control | [6] 102 % of control

O=C(O)C1(C(=O)O)C=CCCC1
inactive: dose: 100.0 mg/kg/injection, schedule: Q01DX009 (ip), vehicle: saline + alcohol 89 % of control | [1] 100 % of control | dose: 200.0 mg/kg/injection, schedule: Q01DX009 (ip), vehicle: saline + alcohol 102 % of control | [2] 97 % of control | [3] 107 % of control

N#Cc1c(/N=C/c2ccccc2Cl)sc2c1CCC2
inactive: [7] 91 % of control | [8] 105 % of control | dose: 400.0 mg/kg/injection, schedule: Q04DX002 (ip), vehicle: saline with Tween-80 91 % of control

COC(=O)CSc1ncc2cnccn12
inactive: dose: 100.0 mg/kg/injection, schedule: Q01DX009 (ip), vehicle: water 105 % of control | [9] 119 % of control | dose: 200.0 mg/kg/injection, schedule: Q01DX009 (ip), vehicle: water 98 % of control | [10] 98 % of control | dose: 400.0 mg/kg/injection, schedule: Q01DX009 (ip), vehicle: water 98 % of control | [11] 104 % of control

CCCN(CCC)P(c1ccccc1)N(CCC)CCC
inactive: [7] 93 % of control | [8] 101 % of control

Cc1ccc(C(=O)/C=C/c2ccccc2O)cc1
inactive: dose: 100.0 mg/kg/injection, schedule: Q01DX009 (ip), vehicle: saline with Tween-80 100 % of control | [4] 105 % of control | dose: 200.0 mg/kg/injection, schedule: Q01DX009 (ip), vehicle: saline with Tween-80 98 % of control | [5] 100 % of control | dose: 400.0 mg/kg/injection, schedule: Q01DX009 (ip), vehicle: saline with Tween-80 94 % of control | [6] 98 % of control

CCOC(=N)c1nnn(Cc2ccccc2)c1N
inactive: [12] 89 % of control | dose: 200.0 mg/kg/injection, schedule: Q01DX001 (ip), vehicle: saline 89 % of control

COc1ccc(C(=O)NC[n+]2ccccc2)cc1
inactive: [13] 93 % of control | [14] 86 % of control | [15] 98 % of control | [16] 93 % of control | dose: 100.0 mg/kg/injection, schedule: Q04DX003 (ip), vehicle: saline 99 % of control

Clc1nc(Cl)nc(Cl)n1
inactive: dose: 100.0 mg/kg/injection, schedule: Q04DX002 (ip), vehicle: other 98 % of control | dose: 200.0 mg/kg/injection, schedule: Q04DX002 (ip), vehicle: other 95 % of control

CC(=O)OC/C=C(\C)CCC=O
inactive: [9] 98 % of control | [10] 102 % of control | [11] 100 % of control

CCCC(=O)c1c(C)cc(C)cc1C
inactive: [17] 97 % of control | [18] 108 % of control | [19] 97 % of control

CC1(c2ccc3ccccc3c2)OCC2(CCCC2)CO1
inactive: dose: 100.0 mg/kg/injection, schedule: Q04DX002 (ip), vehicle: gum acacia 117 % of control | dose: 200.0 mg/kg/injection, schedule: Q04DX002 (ip), vehicle: gum acacia 110 % of control | dose: 400.0 mg/kg/injection, schedule: Q04DX002 (ip), vehicle: gum acacia 103 % of control

CNS(=O)(=O)c1cc(C)ccc1C
inactive: [17] 94 % of control | [18] 95 % of control | [19] 100 % of control

ClC(CN1CCCCC1)C(Cl)c1ccccc1 (centres undefined)
inactive: [15] 90 % of control | dose: 50.0 mg/kg/injection, schedule: Q04DX003 (ip), vehicle: saline sonified 96 % of control | [20] 91 % of control | dose: 100.0 mg/kg/injection, schedule: Q04DX003 (ip), vehicle: saline sonified 91 % of control | dose: 200.0 mg/kg/injection, schedule: Q04DX003 (ip), vehicle: saline sonified 101 % of control

O=S(=O)(Nc1ccccc1F)c1ccc2ccccc2c1
inactive: [20] 93 % of control | dose: 200.0 mg/kg/injection, schedule: Q01DX009 (ip), vehicle: saline 93 % of control | dose: 400.0 mg/kg/injection, schedule: Q01DX009 (ip), vehicle: saline 98 % of control

CC(C)=NN=C(C)C
inactive: dose: 12.5 mg/kg/injection, schedule: Q01DX001 (ip), vehicle: saline 101 % of control | dose: 12.5 mg/kg/injection, schedule: Q01DX009 (ip), vehicle: saline 101 % of control | dose: 25.0 mg/kg/injection, schedule: Q01DX001 (ip), vehicle: saline 99 % of control | [13] 100 % of control | [14] 100 % of control | dose: 50.0 mg/kg/injection, schedule: Q01DX001 (ip), vehicle: saline 111 % of control | [16] 102 % of control | [12] 110 % of control
